Consider one molecule from publication PMC6254361, “The properties of Msh2–Msh6 ATP binding mutants suggest a signal amplification mechanism in DNA mismatch repair” (The Journal of Biological Chemistry, 2018).

The target of the assay is T1, Msh2–Msh6 (Saccharomyces cerevisiae, UniProt P25847+Q03834, Q03834:K988R).
T1 sequence (P25847 1-964): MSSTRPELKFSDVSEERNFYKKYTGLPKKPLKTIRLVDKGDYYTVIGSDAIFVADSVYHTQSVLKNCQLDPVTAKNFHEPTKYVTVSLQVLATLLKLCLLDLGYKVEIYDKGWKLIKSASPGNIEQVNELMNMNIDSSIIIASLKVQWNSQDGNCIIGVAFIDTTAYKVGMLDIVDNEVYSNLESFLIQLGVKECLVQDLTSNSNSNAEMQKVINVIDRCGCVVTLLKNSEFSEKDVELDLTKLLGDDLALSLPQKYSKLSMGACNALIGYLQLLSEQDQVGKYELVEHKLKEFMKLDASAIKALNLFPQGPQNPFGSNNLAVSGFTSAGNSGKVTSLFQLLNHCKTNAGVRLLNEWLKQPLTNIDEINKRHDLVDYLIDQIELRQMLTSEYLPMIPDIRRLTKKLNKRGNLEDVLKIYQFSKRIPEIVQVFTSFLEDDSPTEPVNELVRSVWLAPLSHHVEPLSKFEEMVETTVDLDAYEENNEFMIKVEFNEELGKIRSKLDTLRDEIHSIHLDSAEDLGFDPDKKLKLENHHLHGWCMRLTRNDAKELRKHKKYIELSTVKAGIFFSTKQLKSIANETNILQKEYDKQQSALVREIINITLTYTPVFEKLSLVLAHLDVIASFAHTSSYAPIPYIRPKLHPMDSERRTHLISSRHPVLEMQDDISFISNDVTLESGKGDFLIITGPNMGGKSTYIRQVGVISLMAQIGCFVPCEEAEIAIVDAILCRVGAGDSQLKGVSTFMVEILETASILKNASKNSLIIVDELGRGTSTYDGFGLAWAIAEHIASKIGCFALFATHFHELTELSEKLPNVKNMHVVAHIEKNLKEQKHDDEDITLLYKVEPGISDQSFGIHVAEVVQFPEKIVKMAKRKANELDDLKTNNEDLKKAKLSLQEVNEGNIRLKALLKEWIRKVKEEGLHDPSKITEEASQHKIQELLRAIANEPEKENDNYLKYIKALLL
T1 sequence (Q03834 1-1242 K988R): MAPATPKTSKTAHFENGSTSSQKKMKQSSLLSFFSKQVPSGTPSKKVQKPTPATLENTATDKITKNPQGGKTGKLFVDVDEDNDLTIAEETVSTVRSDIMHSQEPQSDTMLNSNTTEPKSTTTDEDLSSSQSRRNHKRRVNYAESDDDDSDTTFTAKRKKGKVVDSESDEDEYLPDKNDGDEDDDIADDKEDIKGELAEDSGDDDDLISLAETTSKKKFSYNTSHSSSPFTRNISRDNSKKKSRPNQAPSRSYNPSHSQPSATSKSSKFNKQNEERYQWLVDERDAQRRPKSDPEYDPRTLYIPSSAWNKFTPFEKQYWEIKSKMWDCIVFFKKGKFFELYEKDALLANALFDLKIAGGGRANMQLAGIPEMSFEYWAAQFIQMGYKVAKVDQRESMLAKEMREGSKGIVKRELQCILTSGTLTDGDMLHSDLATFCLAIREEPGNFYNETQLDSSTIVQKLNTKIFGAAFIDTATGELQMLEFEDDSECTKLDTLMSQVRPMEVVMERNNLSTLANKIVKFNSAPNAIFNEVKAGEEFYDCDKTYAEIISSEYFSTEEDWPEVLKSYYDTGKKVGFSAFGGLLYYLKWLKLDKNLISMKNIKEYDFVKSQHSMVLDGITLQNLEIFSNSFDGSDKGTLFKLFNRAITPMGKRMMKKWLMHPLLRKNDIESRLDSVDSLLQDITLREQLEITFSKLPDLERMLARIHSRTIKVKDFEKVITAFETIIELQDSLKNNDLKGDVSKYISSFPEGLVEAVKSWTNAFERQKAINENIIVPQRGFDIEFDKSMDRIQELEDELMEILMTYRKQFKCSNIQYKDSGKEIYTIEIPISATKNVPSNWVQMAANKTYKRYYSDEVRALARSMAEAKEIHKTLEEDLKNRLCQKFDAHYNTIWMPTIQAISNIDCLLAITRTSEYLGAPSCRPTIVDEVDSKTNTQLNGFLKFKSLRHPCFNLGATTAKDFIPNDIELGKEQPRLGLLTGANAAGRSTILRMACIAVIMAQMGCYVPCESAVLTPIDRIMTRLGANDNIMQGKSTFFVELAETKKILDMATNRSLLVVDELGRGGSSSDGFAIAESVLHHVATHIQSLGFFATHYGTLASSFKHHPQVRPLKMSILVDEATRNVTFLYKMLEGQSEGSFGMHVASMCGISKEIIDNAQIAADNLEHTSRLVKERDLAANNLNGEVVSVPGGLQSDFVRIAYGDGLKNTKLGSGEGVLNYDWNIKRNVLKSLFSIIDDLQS
As to the kind of experiment: UV cross-linking of [γ-32P]ATP, SDS-PAGE, phosphorimaging. It counts as binding. Conditions: labelled compound; no Mg2+, EDTA, pH 8, on ice; Msh2 site at 60 μM ATP, Msh6 site at 1 μM ATP.

As to `Nc1ncnc2c1ncn2[C@@H]1O[C@H](COP(=O)(O)OP(=O)(O)OP(=O)(O)O)[C@@H](O)[C@H]1O` [ATP], the “relative ATP binding” value is “Msh2–Msh6(K988A) and Msh2–Msh6(K988R) mutant complexes had partial ATP binding defects at the Msh2 subunit”.
